Experiments:
Full length Human HDAC6 = target: T1, Full length Human HDAC6 (Homo sapiens, UniProt Q9UBN7); test: Caliper endpoint assay for HDAC enzymatic activity (HDAC6); type: biochemical; conditions: for IC50: in vitro enzymatic, Caliper endpoint assay, 30 min pre-incubation, 1 μM substrate peptide; for Selectivity (6 v 8): ratio of HDAC8 IC50/HDAC6 IC50
T1 construct: Full length Human HDAC6; FLAG (C); host or cells: baculovirus expression system
T1 sequence (Q9UBN7 1-1215): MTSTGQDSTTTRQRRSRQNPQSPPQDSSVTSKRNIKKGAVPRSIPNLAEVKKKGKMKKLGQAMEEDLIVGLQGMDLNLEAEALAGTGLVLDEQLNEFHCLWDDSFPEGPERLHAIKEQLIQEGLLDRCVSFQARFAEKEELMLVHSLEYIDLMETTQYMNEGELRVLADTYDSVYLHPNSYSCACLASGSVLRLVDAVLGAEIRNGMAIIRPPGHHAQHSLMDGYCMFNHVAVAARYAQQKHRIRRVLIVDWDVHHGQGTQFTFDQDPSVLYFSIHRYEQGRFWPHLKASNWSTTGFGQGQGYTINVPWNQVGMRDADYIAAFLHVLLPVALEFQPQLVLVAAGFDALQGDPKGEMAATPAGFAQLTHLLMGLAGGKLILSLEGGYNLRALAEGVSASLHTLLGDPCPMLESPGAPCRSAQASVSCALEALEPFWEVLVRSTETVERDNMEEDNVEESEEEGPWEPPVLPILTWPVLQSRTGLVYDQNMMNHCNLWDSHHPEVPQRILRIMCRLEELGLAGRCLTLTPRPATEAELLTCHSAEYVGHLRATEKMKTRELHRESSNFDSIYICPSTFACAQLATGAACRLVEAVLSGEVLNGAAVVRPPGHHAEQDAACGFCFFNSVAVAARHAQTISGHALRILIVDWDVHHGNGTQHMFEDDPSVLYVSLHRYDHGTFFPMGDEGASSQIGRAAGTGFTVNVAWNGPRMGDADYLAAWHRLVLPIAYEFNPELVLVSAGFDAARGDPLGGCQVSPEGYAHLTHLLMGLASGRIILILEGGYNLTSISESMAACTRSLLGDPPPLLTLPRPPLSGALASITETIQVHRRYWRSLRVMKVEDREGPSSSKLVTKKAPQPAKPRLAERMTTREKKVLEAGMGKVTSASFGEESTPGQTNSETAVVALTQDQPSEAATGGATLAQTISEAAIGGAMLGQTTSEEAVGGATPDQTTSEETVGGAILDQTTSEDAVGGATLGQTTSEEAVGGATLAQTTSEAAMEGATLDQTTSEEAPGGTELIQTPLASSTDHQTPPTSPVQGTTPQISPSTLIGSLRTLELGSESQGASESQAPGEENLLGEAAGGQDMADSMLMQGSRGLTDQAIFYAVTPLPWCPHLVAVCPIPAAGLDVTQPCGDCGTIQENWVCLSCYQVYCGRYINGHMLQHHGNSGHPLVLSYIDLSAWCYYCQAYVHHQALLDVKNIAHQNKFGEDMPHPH

Full length Human HDAC8 = target: T2, Full length Human HDAC8 (Homo sapiens, UniProt Q9BY41); test: Caliper endpoint assay for HDAC enzymatic activity (HDAC8); type: biochemical; conditions: in vitro enzymatic, 30 min pre-incubation, 1 μM substrate peptide
T2 construct: Full length Human HDAC8; HIS (N); host or cells: baculovirus expression system
T2 sequence (Q9BY41 1-377): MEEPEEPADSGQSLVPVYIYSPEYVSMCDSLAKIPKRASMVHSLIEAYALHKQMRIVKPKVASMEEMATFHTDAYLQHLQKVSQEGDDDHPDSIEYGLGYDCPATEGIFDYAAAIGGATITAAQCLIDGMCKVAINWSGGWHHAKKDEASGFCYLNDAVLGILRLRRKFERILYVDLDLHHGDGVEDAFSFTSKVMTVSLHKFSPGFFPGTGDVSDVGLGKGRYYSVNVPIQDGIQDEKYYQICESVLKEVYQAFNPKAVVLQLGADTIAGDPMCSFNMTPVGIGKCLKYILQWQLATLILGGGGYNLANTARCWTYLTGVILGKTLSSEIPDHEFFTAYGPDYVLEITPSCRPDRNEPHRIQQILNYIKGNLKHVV

SMILES	IC50 (Full length Human HDAC6) [nM]	Selectivity (6 v 8) (Full length Human HDAC6)	IC50 (Full length Human HDAC8) [nM]
CC(=O)N1CC[C@@H](N2CCc3cc(C(=O)NO)cc(F)c3C2)CC12CCC2 (single isomer, unassigned) [Compound 442]	1 to 100	IV (IV: >100-1000)	10000 to 100000
CC(=O)N1CCC2(CC1)CC(N1CCc3cc(C(=O)NO)cc(F)c3C1)C2 [Compound 199, 2-(7-acetyl-7-azaspiro[3.5]nonan-2-yl)-8-fluoro-N-hydroxy-1,2,3,4-tetrahydroisoquinoline-6-carboxamide]	1 to 100	IV (IV: >100-1000)	10000 to 100000
O=C(NO)c1cc(F)c2c(c1)CCN(C1CCC3(CCN(C4CC4)CC3)C1)C2 (stereo not shown) [Compound 418, N-2-(8-cyclopropyl-8-azaspiro[4.5]decan-2-yl)-8-fluoro-N-hydroxy-1,2,3,4-tetrahydroisoquinoline-6-carboxamide]	1 to 100	IV (IV: >100-1000)	1000 to 10000
CC[C@@H]1Cc2c(F)cc(C(=O)NO)cc2CN1C1CC2(CCOCC2)C1 (single isomer, unassigned) [Compound 590]	100 to 1000	III (III: >10-100)	10000 to 100000
O=C(NO)c1cc(F)c2c(c1)CCN(CC1C3CC1CN(C1CC1)C3)C2 (stereo not shown) [Compound 494, 2-[(3-cyclopropyl-3-azabicyclo[3.1.1]heptan-6-yl)methyl]-8-fluoro-3,4-dihydro-1H-isoquinoline-6-carbohydroxamic acid]	1 to 100	III (III: >10-100)	1000 to 10000
CC[C@H](c1ccccc1)N1CCc2cc(C(=O)NO)cc(F)c2C1 [Compound 30]	1 to 100		1000 to 10000
CC[C@@H]1Cc2c(F)cc(C(=O)NO)cc2CN1CC12CC(C1)N(C)C2 (single isomer, unassigned) [Compound 534]	100 to 1000	IV (IV: >100-1000)	10000 to 100000
O=C(NO)c1cc(F)c2c(c1)CN(C[C@@H]1CCCCO1)CC2 (single isomer, unassigned) [Compound 214]	1 to 100	III (III: >10-100)	1000 to 10000
O=C(NO)c1cc(F)c2c(c1)CCN([C@@H]1CCN(Cc3ccccc3)C3(CCC3)C1)C2 (single isomer, unassigned) [Compound 444]	1 to 100	IV (IV: >100-1000)	10000 to 100000
O=C(NO)c1ccc2c(c1)CCN1CCCC[C@@H]21 [Compound 89]	1000 to 10000	II (II: >1-10)	1000 to 10000
O=C(NO)c1cc(F)c2c(c1)CCN([C@H]1CCN(Cc3ccccc3)C3(CCC3)C1)C2 (single isomer, unassigned) [Compound 443]	1 to 100	IV (IV: >100-1000)	10000 to 100000
CN1CC[C@@H](N2CCc3cc(C(=O)NO)cc(F)c3C2)CC12CCC2 (single isomer, unassigned) [Compound 438]	1 to 100	IV (IV: >100-1000)	1000 to 10000
O=C(NO)c1cc(F)c2c(c1)CCN([C@@H]1CC[C@]13CCOC3)C2 (single isomer, unassigned) [Compound 318]	1 to 100	V (V: >1000)	10000 to 100000
CC[C@H]1Cc2c(F)cc(C(=O)NO)cc2CN1CC12CC(NC)(C1)C2 (single isomer, unassigned) [Compound 523]	1 to 100	IV (IV: >100-1000)	10000 to 100000
O=C(NO)c1ccc2c(c1)CN1CCC[C@H]21 [Compound 164]	1000 to 10000	II (II: >1-10)	1000 to 10000
CC[C@H]1Cc2c(F)cc(C(=O)NO)cc2CN1C[C@H]1CCCCO1 (single isomer, unassigned) [Compound 231]	1 to 100	IV (IV: >100-1000)	1000 to 10000
O=C(NO)c1cc(F)c2c(c1)CN(CC13CC4CC(CC(C4)O1)C3)CC2 [Compound 213, 2-(((1r,3s,5R,7S)-2-oxaadamantan-1-yl)methyl)-5-fluoro-N-hydroxy-1,2,3,4-tetrahydroisoquinoline-7-carboxamide]	1 to 100	III (III: >10-100)	100 to 1000
O=C(NO)c1cc(F)c2c(c1)C[C@@H]1CC3(CCCCC3)CN1C2 (single isomer, unassigned) [Compound 136]	1 to 100		1000 to 10000
CC[C@H](c1ccc(C(=O)NO)cc1F)N1CCC2(CCCCC2)C1 (single isomer, unassigned) [Compound 238]	100 to 1000	III (III: >10-100)	1000 to 10000
CN1CC2(CCC(CN3CCc4cc(C(=O)NO)cc(F)c4C3)CC2)C1 [Compound 465, 8-fluoro-2-[(2-methyl-2-azaspiro[3.5]nonan-7-yl)methyl]-3,4-dihydro-1H-isoquinoline-6-carbohydroxamic acid]	1 to 100	V (V: >1000)	10000 to 100000
NC12CC(CN3CCc4cc(C(=O)NO)cc(F)c4C3)(C1)C2 [Compound 486, 2-[(3-amino-1-bicyclo[1.1.1]pentanyl)methyl]-8-fluoro-3,4-dihydro-1H-isoquinoline-6-carbohydroxamic acid]	1 to 100	IV (IV: >100-1000)	10000 to 100000
CN1CCC2(CCC2N2CCc3cc(C(=O)NO)cc(F)c3C2)CC1 (stereo not shown) [Compound 358, 8-fluoro-2-(7-methyl-7-azaspiro[3.5]nonan-3-yl)-3,4-dihydro-1H-isoquinoline-6-carbohydroxamic acid]	1 to 100	IV (IV: >100-1000)	1000 to 10000
CN1CC2(C[C@@H](N3CCc4cc(C(=O)NO)cc(F)c4C3)CCO2)C1 (single isomer, unassigned) [Compound 451]	1 to 100	IV (IV: >100-1000)	1000 to 10000
CN1CC2(C[C@H](N3CCc4cc(C(=O)NO)cc(F)c4C3)CCO2)C1 (single isomer, unassigned) [Compound 452]	100 to 1000	III (III: >10-100)	10000 to 100000
CC[C@@H]1Cc2c(F)cc(C(=O)NO)cc2CN1C1CC2(CCN(C3CC3)CC2)C1 (single isomer, unassigned) [Compound 598]	100 to 1000	IV (IV: >100-1000)	10000 to 100000
CC(=O)N1CC2(CCC(CN3CCc4cc(C(=O)NO)cc(F)c4C3)CC2)C1 [Compound 467, 2-[(2-acetyl-2-azaspiro[3.5]nonan-7-yl)methyl]-8-fluoro-3,4-dihydro-1H-isoquinoline-6-carbohydroxamic acid]	1 to 100	IV (IV: >100-1000)	10000 to 100000
CC[C@H]1Cc2c(F)cc(C(=O)NO)cc2CN1CC12CC3CC(CC(C3)C1)C2 (single isomer, unassigned) [Compound 508]	1 to 100	III (III: >10-100)	1000 to 10000
CC[C@H]1Cc2c(F)cc(C(=O)NO)cc2CN1C1CCCC1 (single isomer, unassigned) [Compound 581]	100 to 1000	III (III: >10-100)	10000 to 100000
CC[C@H]1Cc2c(F)cc(C(=O)NO)cc2CN1CC1CCC2(CCC2)CC1 (single isomer, unassigned) [Compound 528]	1 to 100	III (III: >10-100)	1000 to 10000
